Values quoted from earlier work, collected in patent US6414126B1, “C-aryl glucoside SGLT2 inhibitors and method” (Bristol-Myers Squibb Company, priority 1999, dated 2002).

Assays:
human SGLT2 = target: T1, human SGLT2 (Homo sapiens, UniProt P31639); settings: SGLT2 transporter; read-out: Km values for uptake
T1 sequence (P31639 1-672): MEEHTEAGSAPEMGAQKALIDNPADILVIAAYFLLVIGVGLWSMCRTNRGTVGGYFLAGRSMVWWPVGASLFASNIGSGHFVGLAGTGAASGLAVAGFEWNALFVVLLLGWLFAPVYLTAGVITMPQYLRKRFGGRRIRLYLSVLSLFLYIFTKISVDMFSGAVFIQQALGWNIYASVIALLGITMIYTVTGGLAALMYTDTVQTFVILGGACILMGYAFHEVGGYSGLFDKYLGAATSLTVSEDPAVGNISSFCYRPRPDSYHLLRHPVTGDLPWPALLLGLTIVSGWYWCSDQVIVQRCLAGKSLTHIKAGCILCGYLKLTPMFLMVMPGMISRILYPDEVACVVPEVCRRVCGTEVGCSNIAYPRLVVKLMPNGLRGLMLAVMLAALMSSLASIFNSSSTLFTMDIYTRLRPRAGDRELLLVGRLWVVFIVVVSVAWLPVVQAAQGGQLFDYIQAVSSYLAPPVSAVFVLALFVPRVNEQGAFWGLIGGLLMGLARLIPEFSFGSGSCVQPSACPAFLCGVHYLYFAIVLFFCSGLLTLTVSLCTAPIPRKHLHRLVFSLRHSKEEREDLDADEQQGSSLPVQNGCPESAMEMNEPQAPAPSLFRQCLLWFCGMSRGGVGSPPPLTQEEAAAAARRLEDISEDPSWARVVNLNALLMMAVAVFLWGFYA

human SGLT1 = target: T2, human SGLT1 (Homo sapiens, UniProt P13866); settings: SGLT1 transporter; read-out: Km values for uptake
T2 sequence (P13866 1-664): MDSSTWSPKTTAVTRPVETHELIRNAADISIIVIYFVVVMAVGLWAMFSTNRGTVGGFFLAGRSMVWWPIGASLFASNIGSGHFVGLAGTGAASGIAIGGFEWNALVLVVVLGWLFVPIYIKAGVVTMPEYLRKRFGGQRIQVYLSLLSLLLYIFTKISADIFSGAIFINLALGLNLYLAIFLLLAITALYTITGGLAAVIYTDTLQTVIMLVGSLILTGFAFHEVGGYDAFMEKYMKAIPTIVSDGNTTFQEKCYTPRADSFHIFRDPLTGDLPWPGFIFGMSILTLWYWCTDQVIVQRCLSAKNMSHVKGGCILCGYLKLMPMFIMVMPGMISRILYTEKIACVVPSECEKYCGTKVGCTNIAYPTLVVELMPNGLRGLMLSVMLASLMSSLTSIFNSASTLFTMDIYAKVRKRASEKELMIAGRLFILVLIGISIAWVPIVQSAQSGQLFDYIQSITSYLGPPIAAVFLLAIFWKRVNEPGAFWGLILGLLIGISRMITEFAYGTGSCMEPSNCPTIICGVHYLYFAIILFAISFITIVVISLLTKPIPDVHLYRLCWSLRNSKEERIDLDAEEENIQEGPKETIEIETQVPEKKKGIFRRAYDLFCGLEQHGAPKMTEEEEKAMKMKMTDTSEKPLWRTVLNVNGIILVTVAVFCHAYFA

CO[C@H]1O[C@H](CO)[C@@H](O)[C@H](O)[C@H]1O [AMG, α-methyl-D-glucopyranoside]
Km (human SGLT2): 1600 µM | Km (human SGLT1): 400 µM
